The text below walks through data of patent US8741934B2, “Inhibitors of ion channels” (Pfizer Limited, priority 2007, dated 2014).

For the assay, the target named is T1, hSCN3A sodium channels (Homo sapiens, UniProt Q9NY46).
T1 construct: expressed in transfected cells
Nature of the assay: hSCN3A electrophysiology, Ionworks Quattro automated platform (Table C). In kind it is cell-based. The note with it: for inhibition at 3 µM: 3 μM compound, read-out: SCN3A % INHIB HTS IWQ 3 μM; for inhibition at 10 µM: 10 μM compound, read-out: SCN3A % INHIB HTS IWQ 10 μM; for SCN3A INHIB INACT DRC EP IWQ EMAX: Emax of dose-response curve, inactivated state. The procedure: Human Embryonic Kidney (HEK) cells were transfected with an hSCN3A construct using lipofectamine reagent (Invitrogen), using standard techniques. […] Clones were screened for expression using the whole-cell voltage-clamp technique.
HEK cells stably transfected with hSCN3A were maintained in DMEM medium supplemented with 10% heat-inactivated fetal bovine serum and 400 μg/ml G418 sulfate in an incubator at 37° C. with a humidified atmosphere of 10% CO2. […] For electrophysiological studies, cells were removed from the culture flask by brief trypsinization and replated at low density onto glass cover slips. Cells were typically used for electrophysiological experiments within 24 to 72 h after plating.
Electrophysiological assays were also conducted using the Ionworks Quattro automated electrophysiological platform (Molecular Devices Corp) (Table C). Intracellular and extracellular solutions were as described above with the following changes, 100 μg/ml amphotericin was added to the intracellular solution to perforate the membrane and allow electrical access to the cells. hSCN3A cells were grown and harvested as for PatchXpress and cells were resuspended in extracellular solution at a concentration of 3-4×10^6 cells/ml. The onboard liquid handling facility of the Ionworks Quattro was used for dispensing cells and application of test compounds. A voltage protocol was then applied that comprised of a voltage step to fully inactivate the sodium channels, followed by a brief hyperpolarized recovery period to allow partial recovery from inactivation for unblocked sodium channels, followed by a test depolarized voltage step to assess magnitude of inhibition by test compound. Compound effect was determined based on current amplitude difference between the pre-compound addition and post-compound addition scans.
(In general: Patch clamp records ionic current or voltage across a cell membrane.)

T1 sequence (Q9NY46 whole entry): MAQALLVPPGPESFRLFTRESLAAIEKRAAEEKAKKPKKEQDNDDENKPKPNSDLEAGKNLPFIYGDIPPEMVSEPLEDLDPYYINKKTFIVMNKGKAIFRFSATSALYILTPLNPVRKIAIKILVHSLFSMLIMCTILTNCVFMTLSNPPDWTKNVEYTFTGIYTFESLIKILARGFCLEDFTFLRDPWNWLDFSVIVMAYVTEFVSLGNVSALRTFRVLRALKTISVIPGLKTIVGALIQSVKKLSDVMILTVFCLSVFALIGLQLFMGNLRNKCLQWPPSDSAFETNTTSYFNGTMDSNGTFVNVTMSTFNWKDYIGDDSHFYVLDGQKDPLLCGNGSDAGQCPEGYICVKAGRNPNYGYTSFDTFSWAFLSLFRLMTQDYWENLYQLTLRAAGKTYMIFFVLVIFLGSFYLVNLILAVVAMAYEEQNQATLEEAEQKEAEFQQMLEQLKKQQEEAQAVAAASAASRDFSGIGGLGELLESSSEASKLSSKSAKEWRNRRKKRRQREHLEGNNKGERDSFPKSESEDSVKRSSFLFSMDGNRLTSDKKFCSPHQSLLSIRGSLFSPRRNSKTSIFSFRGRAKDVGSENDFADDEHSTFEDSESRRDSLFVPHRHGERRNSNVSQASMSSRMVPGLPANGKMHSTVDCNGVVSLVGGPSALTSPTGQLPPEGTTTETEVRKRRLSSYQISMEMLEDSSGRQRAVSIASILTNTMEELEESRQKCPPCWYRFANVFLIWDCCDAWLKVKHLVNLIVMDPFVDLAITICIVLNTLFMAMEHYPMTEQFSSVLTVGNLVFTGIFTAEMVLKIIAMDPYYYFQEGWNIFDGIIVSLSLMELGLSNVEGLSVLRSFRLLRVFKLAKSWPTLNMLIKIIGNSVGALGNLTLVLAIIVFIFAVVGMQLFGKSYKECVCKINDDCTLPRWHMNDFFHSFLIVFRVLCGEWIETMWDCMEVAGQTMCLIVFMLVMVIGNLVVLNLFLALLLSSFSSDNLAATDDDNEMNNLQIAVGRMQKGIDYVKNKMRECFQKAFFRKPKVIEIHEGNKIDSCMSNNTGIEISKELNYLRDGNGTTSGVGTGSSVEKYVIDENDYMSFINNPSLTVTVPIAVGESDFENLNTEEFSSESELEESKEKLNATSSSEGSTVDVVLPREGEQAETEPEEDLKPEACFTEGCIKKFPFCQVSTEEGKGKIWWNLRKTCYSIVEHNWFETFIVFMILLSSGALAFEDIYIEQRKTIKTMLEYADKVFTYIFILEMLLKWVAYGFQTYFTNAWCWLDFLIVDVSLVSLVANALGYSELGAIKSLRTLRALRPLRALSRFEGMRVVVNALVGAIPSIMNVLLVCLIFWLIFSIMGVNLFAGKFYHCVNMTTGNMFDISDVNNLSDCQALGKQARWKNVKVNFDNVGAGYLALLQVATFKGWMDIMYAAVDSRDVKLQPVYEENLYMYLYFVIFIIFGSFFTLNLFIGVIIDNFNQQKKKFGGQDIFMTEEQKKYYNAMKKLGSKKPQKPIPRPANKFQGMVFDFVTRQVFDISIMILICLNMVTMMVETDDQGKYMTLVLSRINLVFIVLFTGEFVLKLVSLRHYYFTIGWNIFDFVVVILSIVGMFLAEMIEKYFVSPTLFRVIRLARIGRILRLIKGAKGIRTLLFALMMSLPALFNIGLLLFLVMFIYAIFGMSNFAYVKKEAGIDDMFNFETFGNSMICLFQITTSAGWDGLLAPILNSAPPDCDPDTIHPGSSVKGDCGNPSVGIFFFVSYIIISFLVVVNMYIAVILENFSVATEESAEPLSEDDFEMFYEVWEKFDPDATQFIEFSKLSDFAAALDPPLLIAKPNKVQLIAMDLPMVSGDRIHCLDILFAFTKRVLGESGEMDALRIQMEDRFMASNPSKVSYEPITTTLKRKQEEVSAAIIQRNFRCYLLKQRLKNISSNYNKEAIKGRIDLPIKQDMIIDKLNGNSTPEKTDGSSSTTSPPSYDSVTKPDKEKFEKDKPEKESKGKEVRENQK

Consider `O=C(NC(CO)c1ccccc1Cl)c1ccc(S(=O)(=O)Nc2nccs2)cc1` (centres unmarked) [Example 56, N-[1-(2-chlorophenyl)-2-hydroxyethyl]-4-[(1,3-thiazol-2-ylamino)sulfonyl]benzamide], for which the inhibition at 3 µM worked out at 3.23% and the inhibition at 10 µM worked out at 2.53%.
The like results for `CC[C@H](NC(=O)c1ccc(S(=O)(=O)Nc2nccs2)cc1)c1ccccc1` [Example 145, N-[(1S)-1-phenylpropyl]-4-[(1,3-thiazol-2-ylamino)sulfonyl]benzamide] were, in that order, 2.05% and 19.4%.
As to `O=C(c1ccc(S(=O)(=O)Nc2nccs2)cc1)N1CCC(Cc2ccccc2)C1` (centres unmarked) [Example 282, 4-[(3-Benzylpyrrolidin-1-yl)carbonyl]-N-1,3-thiazol-2-yl-benzenesulfonamide], the inhibition at 3 µM came out at 29.1% and the inhibition at 10 µM was 11.4%.
Regarding `CC(C)(NC(=O)c1ccc(S(=O)(=O)Nc2nccs2)cc1)c1cccc(Cl)c1` [Example 127, N-[1-(3-chlorophenyl)-1-methylethyl]-4-[(1,3-thiazol-2-ylamino)sulfonyl]benzamide], the inhibition at 3 µM was 28.9% and the inhibition at 10 µM was 28.7%.
On the same counts, the results for `Cc1cccc(CNC(=O)c2ccc(S(=O)(=O)Nc3nccs3)cc2)c1` [Example 71, N-(3-methylbenzyl)-4-[(1,3-thiazol-2-ylamino)sulfonyl]benzamide] are 38.8% and 37.1%.
`O=C(c1ccc(S(=O)(=O)Nc2nccs2)cc1)N1CCOC(COc2cccc(Cl)c2)C1` (centres unmarked) [Example 234, 4-({2-[(3-Chlorophenoxy)methyl]morpholin-4-yl}carbonyl)-N-1,3-thiazol-2-yl-benzenesulfonamide]: the inhibition at 3 µM amounted to 32%, the inhibition at 10 µM was found to be 45.9% and the “SCN3A INHIB INACT DRC EP IWQ EMAX” value amounted to 43.1.
For `C[C@H]([C@@H](O)c1ccccc1)N(C)C(=O)c1ccc(S(=O)(=O)Nc2nccs2)cc1` [Example 241, N-[(1R,2S)-2-hydroxy-1-methyl-2-phenylethyl]-N-methyl-4-[(1,3-thiazol-2-ylamino)sulfonyl]benzamide], the inhibition at 3 µM stood at 21.7% and the inhibition at 10 µM was 11.6%.
On the same counts, the results for `O=C(c1ccc(S(=O)(=O)Nc2nccs2)cc1)N1CCCC1Cc1ccccc1` (centres unmarked) [Example 197, 4-[(2-Benzylpyrrolidin-1-yl)carbonyl]-N-1,3-thiazol-2-yl-benzenesulfonamide] are 17.6% and 17.4%.
The like results for `CN(CCC(O)c1ccccc1)C(=O)c1ccc(S(=O)(=O)Nc2nccs2)cc1` (centres unmarked) [Example 235, N-(3-hydroxy-3-phenylpropyl)-N-methyl-4-[(1,3-thiazol-2-yl-amino)sulfonyl]benzamide] were, in that order, 21.4% and -2.43%.
The like results for `CC(NC(=O)c1ccc(S(=O)(=O)Nc2nccs2)cc1)c1ccc(F)cc1` (centres unmarked) [Example 103, N-[1-(4-fluorophenyl)ethyl]-4-[(1,3-thiazol-2-ylamino)sulfonyl]benzamide] were, in that order, 21.2% and 46.8%.
With `COc1cccc(C2(NC(=O)c3ccc(S(=O)(=O)Nc4nccs4)cc3)CC2)c1` [Example 164, N-[1-(3-methoxyphenyl)cyclopropyl]-4-[(1,3-thiazol-2-ylamino)sulfonyl]benzamide], the inhibition at 3 µM came to 16.6% and the inhibition at 10 µM was 24.1%.
With `Cc1cccc(CC2COCCN(C(=O)c3ccc(S(=O)(=O)Nc4nccs4)cc3)C2)n1` (centres unmarked) [Example 225, 4-({6-[(6-Methylpyridin-2-yl)methyl]-1,4-oxazepan-4-yl}carbonyl)-N-1,3-thiazol-2-yl-benzenesulfonamide], the inhibition at 3 µM came to 6.08% and the inhibition at 10 µM was -8.14%.
On the same counts, the results for `CC(C)(NC(=O)c1ccc(S(=O)(=O)Nc2nccs2)cc1)c1cc(F)cc(F)c1` [Example 141, N-[1-(3,5-difluorophenyl)-1-methylethyl]-4-[(1,3-thiazol-2-ylamino)sulfonyl]benzamide] are 6.82% and 25%.
The like results for `O=C(c1ccc(S(=O)(=O)Nc2nccs2)cc1)N1CCOC(CN2Cc3ccccc3C2=O)C1` (centres unmarked) [Example 210, 4-({2-[(1-Oxo-1,3-dihydro-2H-isoindol-2-yl)methyl]morpholin-4-yl}carbonyl)-N-1,3-thiazol-2-ylbenzenesulfonamide] were, in that order, 4.03% and 11.9%.
The like results for `O=C(c1ccc(S(=O)(=O)Nc2nccs2)cc1)N1CCCO[C@H]1Cc1ccccc1` [Example 214, 4-{[(2S)-2-benzyl-1,3-oxazinan-3-yl]carbonyl}-N-1,3-thiazol-2-yl-benzenesulfonamide] were, in that order, 9.25% and 4.51%.
On to `O=C(NC1(Cc2ccccc2Cl)CC1)c1ccc(S(=O)(=O)Nc2nccs2)cc1` [Example 129, N-[1-(2-chlorobenzyl)cyclopropyl]-4-[(1,3-thiazol-2-ylamino)sulfonyl]benzamide], for which the inhibition at 3 µM is 13.6% and the inhibition at 10 µM was determined as 24.2%.
For the molecule `CC(Cc1ccc(C(F)(F)F)cc1)NC(=O)c1ccc(S(=O)(=O)Nc2nccs2)cc1` (centres unmarked) [Example 130, N-{1-methyl-2-[4-(trifluoromethyl)phenyl]ethyl}-4-[(1,3-thiazol-2-ylamino)sulfonyl]benzamide], the inhibition at 3 µM turned out to be 23.1% and the inhibition at 10 µM came to 16.5%.
As for `O=C(NCc1cccc(C(F)(F)F)c1)c1ccc(S(=O)(=O)Nc2nccs2)c(Cl)c1` [Example 288, 3-Chloro-4-[(1,3-thiazol-2-ylamino)sulfonyl]-N-[3-(trifluoromethyl)benzyl]benzamide], the inhibition at 3 µM came out at 4.38% and the inhibition at 10 µM is 13.4%.
Regarding `O=C(NCc1cc(F)ccc1C(F)(F)F)c1ccc(S(=O)(=O)Nc2nccs2)cc1` [Example 81, N-[5-fluoro-2-(trifluoromethyl)benzyl]-4-[(1,3-thiazol-2-ylamino)sulfonyl]benzamide], the inhibition at 3 µM turned out to be 34.7% and the inhibition at 10 µM came out at 65.7%.
On the same counts, the results for `COc1cccc(C2CCCCCN2C(=O)c2ccc(S(=O)(=O)Nc3nccs3)cc2)c1` (centres unmarked) [Example 275, 4-{[2-(3-Methoxyphenyl)azepan-1-yl]carbonyl}-N-1,3-thiazol-2-yl-benzenesulfonamide] are 9.93% and -0.2%.
With `COc1ccc(C2(NC(=O)c3ccc(S(=O)(=O)Nc4nccs4)cc3)CC2)cc1` [Example 160, N-[1-(4-methoxyphenyl)cyclopropyl]-4-[(1,3-thiazol-2-ylamino)sulfonyl]benzamide], the inhibition at 3 µM was found to be 15.6% and the inhibition at 10 µM is 14.8%.
On the same counts, the results for `O=C(c1ccc(S(=O)(=O)Nc2nccs2)cc1)N1CCCC1c1ccccc1` (centres unmarked) [Example 205, 4-[(2-Phenylpyrrolidin-1-yl)carbonyl]-N-1,3-thiazol-2-yl-benzenesulfonamide] are 11.3% and 27.3%.
The like results for `O=C(c1ccc(S(=O)(=O)Nc2nccs2)cc1)N1CCC(COCC2CC2)C1` (centres unmarked) [Example 269, 4-({3-[(Cyclopropylmethoxy)methyl]pyrrolidin-1-yl}carbonyl)-N-1,3-thiazol-2-yl-benzenesulfonamide] were, in that order, 0.37% and 16.5%.
The like results for `CC(C)N(Cc1ccccc1)C(=O)c1ccc(S(=O)(=O)Nc2nccs2)cc1` [Example 187, N-benzyl-N-isopropyl-4-[(1,3-thiazol-2-ylamino)sulfonyl]benzamide] were, in that order, 5.69% and 4.2%.
For the molecule `O=C(c1ccc(S(=O)(=O)Nc2nccs2)cc1)N1CCCC(COc2cc(F)cc(F)c2)C1` (centres unmarked) [Example 271, 4-({3-[(3,5-Difluorophenoxy)methyl]piperidin-1-yl}carbonyl)-N-1,3-thiazol-2-yl-benzenesulfonamide], the inhibition at 3 µM worked out at 35.8%, the inhibition at 10 µM stood at 41.4% and the “SCN3A INHIB INACT DRC EP IWQ EMAX” value worked out at 52.4. The IC50 (read-out: SCN3A IWQ IC-50) is 26.4 µM.
As to `COc1cccc(CC2CCCN2C(=O)c2ccc(S(=O)(=O)Nc3nccs3)cc2)c1` (centres unmarked) [Example 240, 4-{[2-(3-Methoxybenzyl)pyrrolidin-1-yl]carbonyl}-N-1,3-thiazol-2-yl-benzenesulfonamide], the inhibition at 3 µM stood at 14.4% and the inhibition at 10 µM amounted to 20.2%.
The like results for `O=C(c1ccc(S(=O)(=O)Nc2nccs2)cc1)N(Cc1ccccc1)[C@@H]1CCCC[C@H]1O` [Example 213, N-benzyl-N-[(1R,2R)-2-hydroxycyclohexyl]-4-[(1,3-thiazol-2-yl-amino)sulfonyl]benzamide] were, in that order, -0.67% and 1.51%.
On the same counts, the results for `Cc1ccnc(NC(=O)c2ccc(S(=O)(=O)Nc3nccs3)cc2)c1` [Example 181, N-(4-methylpyridin-2-yl)-4-[(1,3-thiazol-2-ylamino)sulfonyl]benzamide] are -12.2% and 11.2%.
